# Source: PubChem BioAssay AID2060891 (Molecular Pharmacology Branch, DTP, NCI, 2025)
# Tested on: K98450-129-R-PDC complex spheroid growth, percent test/control
# Assay: Anticancer human tumor K98450-129-R-PDC patient-derived colon adenocarcinoma cell line growth inhibition [RAS]
# Settings: curve of first compound; second compound 1 µM
# Procedure, shortened: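 Agents were tested in combination matrices in half-log decrements from a top concentration at or near clinical Cmax (10 microM if undetermined). Targets were multi-cell spheroids of tumour lines plus HUVEC and MSC stromal cells.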
# 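Further: spheroids exposed to agents for seven days before the viability readout.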
# 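Wherever viability, T/C is given: luminescence used as a proxy for viable cell amount.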
row,SMILES,IC50
1,CC(C)n1nc(-c2ccc3oc(N)nc3c2)c2c(N)ncnc21 + C=CC(=O)N1CCN(c2nc(OCC3CCCN3C)nc3c(F)c(-c4nc(N)cc(C)c4C(F)(F)F)c(Cl)cc23)C(C)C1,< 0.000316 µM
2,CC1(O)CCCC1n1c(=O)c(C(F)F)cc2cnc(NC3CCN(S(C)(=O)=O)CC3)nc21 (stereo unspecified) + C=CC(=O)N1CCN(c2nc(OCC3CCCN3C)nc3c(F)c(-c4nc(N)cc(C)c4C(F)(F)F)c(Cl)cc23)C(C)C1,< 0.0316 µM
3,CCN1CCN(Cc2ccc(Nc3ncc(F)c(-c4cc(F)c5nc(C)n(C(C)C)c5c4)n3)nc2)CC1 + C=CC(=O)N1CCN(c2nc(OCC3CCCN3C)nc3c(F)c(-c4nc(N)cc(C)c4C(F)(F)F)c(Cl)cc23)C(C)C1,< 0.00316 µM
4,C[C@@H](NC(=O)c1ncnc(N)c1Cl)c1ncc(C(=O)Nc2cc(C(F)(F)F)c(Cl)cn2)s1 + C=CC(=O)N1CCN(c2nc(OCC3CCCN3C)nc3c(F)c(-c4nc(N)cc(C)c4C(F)(F)F)c(Cl)cc23)C(C)C1,< 0.0316 µM

# Same assay, conditions: second compound 0.00316 µM; first compound 0.000316 µM; stronger effect = lower value
row,SMILES,"viability, T/C"
1,CC(C)n1nc(-c2ccc3oc(N)nc3c2)c2c(N)ncnc21 + C=CC(=O)N1CCN(c2nc(OCC3CCCN3C)nc3c(F)c(-c4nc(N)cc(C)c4C(F)(F)F)c(Cl)cc23)C(C)C1,90.9%

# Same assay, conditions: second compound 0.00316 µM; first compound 0.001 µM; stronger effect = lower value
row,SMILES,"viability, T/C"
1,CC(C)n1nc(-c2ccc3oc(N)nc3c2)c2c(N)ncnc21 + C=CC(=O)N1CCN(c2nc(OCC3CCCN3C)nc3c(F)c(-c4nc(N)cc(C)c4C(F)(F)F)c(Cl)cc23)C(C)C1,85.2%

# Same assay, conditions: second compound 0.00316 µM; first compound 0.00316 µM; stronger effect = lower value
row,SMILES,"viability, T/C"
1,CC(C)n1nc(-c2ccc3oc(N)nc3c2)c2c(N)ncnc21 + C=CC(=O)N1CCN(c2nc(OCC3CCCN3C)nc3c(F)c(-c4nc(N)cc(C)c4C(F)(F)F)c(Cl)cc23)C(C)C1,87.9%
2,CCN1CCN(Cc2ccc(Nc3ncc(F)c(-c4cc(F)c5nc(C)n(C(C)C)c5c4)n3)nc2)CC1 + C=CC(=O)N1CCN(c2nc(OCC3CCCN3C)nc3c(F)c(-c4nc(N)cc(C)c4C(F)(F)F)c(Cl)cc23)C(C)C1,95%

# Same assay, conditions: second compound 0.00316 µM; first compound 0.01 µM; stronger effect = lower value
row,SMILES,"viability, T/C"
1,CC(C)n1nc(-c2ccc3oc(N)nc3c2)c2c(N)ncnc21 + C=CC(=O)N1CCN(c2nc(OCC3CCCN3C)nc3c(F)c(-c4nc(N)cc(C)c4C(F)(F)F)c(Cl)cc23)C(C)C1,82.4%
2,CCN1CCN(Cc2ccc(Nc3ncc(F)c(-c4cc(F)c5nc(C)n(C(C)C)c5c4)n3)nc2)CC1 + C=CC(=O)N1CCN(c2nc(OCC3CCCN3C)nc3c(F)c(-c4nc(N)cc(C)c4C(F)(F)F)c(Cl)cc23)C(C)C1,97.3%

# Same assay, conditions: second compound 0.00316 µM; first compound 0.0316 µM; stronger effect = lower value
row,SMILES,"viability, T/C"
1,CC(C)NCC(C(=O)N1CCN(c2ncnc3c2C(C)CC3O)CC1)c1ccc(Cl)cc1 (stereo unspecified) + C=CC(=O)N1CCN(c2nc(OCC3CCCN3C)nc3c(F)c(-c4nc(N)cc(C)c4C(F)(F)F)c(Cl)cc23)C(C)C1,94.4%
2,CC(C)n1nc(-c2ccc3oc(N)nc3c2)c2c(N)ncnc21 + C=CC(=O)N1CCN(c2nc(OCC3CCCN3C)nc3c(F)c(-c4nc(N)cc(C)c4C(F)(F)F)c(Cl)cc23)C(C)C1,76.5%
3,CC1(O)CCCC1n1c(=O)c(C(F)F)cc2cnc(NC3CCN(S(C)(=O)=O)CC3)nc21 (stereo unspecified) + C=CC(=O)N1CCN(c2nc(OCC3CCCN3C)nc3c(F)c(-c4nc(N)cc(C)c4C(F)(F)F)c(Cl)cc23)C(C)C1,97.1%
4,CCN1CCN(Cc2ccc(Nc3ncc(F)c(-c4cc(F)c5nc(C)n(C(C)C)c5c4)n3)nc2)CC1 + C=CC(=O)N1CCN(c2nc(OCC3CCCN3C)nc3c(F)c(-c4nc(N)cc(C)c4C(F)(F)F)c(Cl)cc23)C(C)C1,81.8%
5,C[C@@H](NC(=O)c1ncnc(N)c1Cl)c1ncc(C(=O)Nc2cc(C(F)(F)F)c(Cl)cn2)s1 + C=CC(=O)N1CCN(c2nc(OCC3CCCN3C)nc3c(F)c(-c4nc(N)cc(C)c4C(F)(F)F)c(Cl)cc23)C(C)C1,101%

# Same assay, conditions: second compound 0.00316 µM; first compound 0.1 µM; stronger effect = lower value
row,SMILES,"viability, T/C"
1,CC(C)NCC(C(=O)N1CCN(c2ncnc3c2C(C)CC3O)CC1)c1ccc(Cl)cc1 (stereo unspecified) + C=CC(=O)N1CCN(c2nc(OCC3CCCN3C)nc3c(F)c(-c4nc(N)cc(C)c4C(F)(F)F)c(Cl)cc23)C(C)C1,97.7%
2,CC(C)n1nc(-c2ccc3oc(N)nc3c2)c2c(N)ncnc21 + C=CC(=O)N1CCN(c2nc(OCC3CCCN3C)nc3c(F)c(-c4nc(N)cc(C)c4C(F)(F)F)c(Cl)cc23)C(C)C1,56.9%
3,CC1(O)CCCC1n1c(=O)c(C(F)F)cc2cnc(NC3CCN(S(C)(=O)=O)CC3)nc21 (stereo unspecified) + C=CC(=O)N1CCN(c2nc(OCC3CCCN3C)nc3c(F)c(-c4nc(N)cc(C)c4C(F)(F)F)c(Cl)cc23)C(C)C1,90.5%
4,CCN1CCN(Cc2ccc(Nc3ncc(F)c(-c4cc(F)c5nc(C)n(C(C)C)c5c4)n3)nc2)CC1 + C=CC(=O)N1CCN(c2nc(OCC3CCCN3C)nc3c(F)c(-c4nc(N)cc(C)c4C(F)(F)F)c(Cl)cc23)C(C)C1,75.2%
5,C[C@@H](NC(=O)c1ncnc(N)c1Cl)c1ncc(C(=O)Nc2cc(C(F)(F)F)c(Cl)cn2)s1 + C=CC(=O)N1CCN(c2nc(OCC3CCCN3C)nc3c(F)c(-c4nc(N)cc(C)c4C(F)(F)F)c(Cl)cc23)C(C)C1,98.6%

# Same assay, conditions: second compound 0.00316 µM; first compound 0.316 µM; stronger effect = lower value
row,SMILES,"viability, T/C"
1,CC(C)NCC(C(=O)N1CCN(c2ncnc3c2C(C)CC3O)CC1)c1ccc(Cl)cc1 (stereo unspecified) + C=CC(=O)N1CCN(c2nc(OCC3CCCN3C)nc3c(F)c(-c4nc(N)cc(C)c4C(F)(F)F)c(Cl)cc23)C(C)C1,94.8%
2,CC1(O)CCCC1n1c(=O)c(C(F)F)cc2cnc(NC3CCN(S(C)(=O)=O)CC3)nc21 (stereo unspecified) + C=CC(=O)N1CCN(c2nc(OCC3CCCN3C)nc3c(F)c(-c4nc(N)cc(C)c4C(F)(F)F)c(Cl)cc23)C(C)C1,80.8%
3,CCN1CCN(Cc2ccc(Nc3ncc(F)c(-c4cc(F)c5nc(C)n(C(C)C)c5c4)n3)nc2)CC1 + C=CC(=O)N1CCN(c2nc(OCC3CCCN3C)nc3c(F)c(-c4nc(N)cc(C)c4C(F)(F)F)c(Cl)cc23)C(C)C1,48.7%
4,C[C@@H](NC(=O)c1ncnc(N)c1Cl)c1ncc(C(=O)Nc2cc(C(F)(F)F)c(Cl)cn2)s1 + C=CC(=O)N1CCN(c2nc(OCC3CCCN3C)nc3c(F)c(-c4nc(N)cc(C)c4C(F)(F)F)c(Cl)cc23)C(C)C1,102%

# Same assay, conditions: second compound 0.00316 µM; first compound 1 µM; stronger effect = lower value
row,SMILES,"viability, T/C"
1,CC(C)NCC(C(=O)N1CCN(c2ncnc3c2C(C)CC3O)CC1)c1ccc(Cl)cc1 (stereo unspecified) + C=CC(=O)N1CCN(c2nc(OCC3CCCN3C)nc3c(F)c(-c4nc(N)cc(C)c4C(F)(F)F)c(Cl)cc23)C(C)C1,93.2%
2,CC1(O)CCCC1n1c(=O)c(C(F)F)cc2cnc(NC3CCN(S(C)(=O)=O)CC3)nc21 (stereo unspecified) + C=CC(=O)N1CCN(c2nc(OCC3CCCN3C)nc3c(F)c(-c4nc(N)cc(C)c4C(F)(F)F)c(Cl)cc23)C(C)C1,71.1%
